# Measured values reported in PubChem BioAssay AID1259407 (Chemical Carcinogenesis Research Information System (CCRIS), 2018).
# “Also recorded” adds a separate entry of the source. The source made the active and inactive calls. The rule behind the calls is not given here.
# System: CCRIS mutagenicity, Ames/micronucleus/aberration tests
# Experiment: CCRIS mutagenicity studies
# [1] = Test System: AMES SALMONELLA TYPHIMURIUM, Strain/Indicator: TA98, Metabolic Activation: NONE, Method: STANDARD PLATE
# [2] = Test System: AMES SALMONELLA TYPHIMURIUM, Strain/Indicator: TA98, Metabolic Activation: RAT, LIVER, S-9, PCB, Method: PREINCUBATION
# [3] = Test System: AMES SALMONELLA TYPHIMURIUM, Strain/Indicator: TA100, Metabolic Activation: NONE, Method: STANDARD PLATE
# [4] = Test System: AMES SALMONELLA TYPHIMURIUM, Strain/Indicator: TA100, Metabolic Activation: RAT, LIVER, S-9, PCB, Method: PREINCUBATION
# [5] = Test System: AMES SALMONELLA TYPHIMURIUM, Strain/Indicator: TA100, Metabolic Activation: NONE, Method: PREINCUBATION
# [6] = Test System: AMES SALMONELLA TYPHIMURIUM, Strain/Indicator: TA98, Metabolic Activation: NONE, Method: PREINCUBATION
compound,measurement,setting,value
Nc1ccc(Oc2ccc(N)cc2)cc1,mutagenic call,"End Point: IN VITRO CHROMOSOMAL ABERRATIONS, Test System: CHL CELLS, Metabolic Activation: NONE",active; positive (structural changes); precipitation occurred at 1.3 and 5.0 mg/ml; also recorded: active; positive (structural changes); precipitation occurred at 1.7 and 5.0 mg/ml
same,mutagenic call,"End Point: IN VITRO CHROMOSOMAL ABERRATIONS, Test System: CHL CELLS, Metabolic Activation: RAT, LIVER, S-9, SODIUM PHENOBARBITAL AND 5,6-BENZOFLAVONE",active; positive (structural changes); precipitation occurred at 1.7 mg/ml
same,mutagenic call,"End Point: IN VITRO CHROMOSOMAL ABERRATIONS, Test System: CHO CELLS, Metabolic Activation: RAT, LIVER, S-9, AROCLOR 1254","active; positive; precipitation occurred at 1600 and 5000 ug/ml; also recorded: active; positive; precipitation occurred at 2000, 3000, 4000 and 5000 ug/ml"
same,mutagenic call,"Test System: AMES SALMONELLA TYPHIMURIUM, Strain/Indicator: TA97, Metabolic Activation: HAMSTER, LIVER, S-9, AROCLOR 1254 (10%), Method: PREINCUBATION",active; positive
same,mutagenic call,"Test System: AMES SALMONELLA TYPHIMURIUM, Strain/Indicator: TA97, Metabolic Activation: NONE, Method: PREINCUBATION",inactive; negative
same,mutagenic call,"Test System: AMES SALMONELLA TYPHIMURIUM, Strain/Indicator: TA97, Metabolic Activation: RAT, LIVER, S-9, AROCLOR 1254 (10%), Method: PREINCUBATION",active; positive
same,mutagenic call,"Test System: AMES SALMONELLA TYPHIMURIUM, Strain/Indicator: TA98, Metabolic Activation: HAMSTER, LIVER, S-9, AROCLOR 1254 (10%), Method: PREINCUBATION",active; positive
same,mutagenic call,"Test System: AMES SALMONELLA TYPHIMURIUM, Strain/Indicator: TA98, Metabolic Activation: NONE, Method: FLUCTUATION (MICROTITER)",inactive; negative
same,mutagenic call,[1],inactive; negative
same,mutagenic call,"Test System: AMES SALMONELLA TYPHIMURIUM, Strain/Indicator: TA98, Metabolic Activation: RAT LIVER S-9, PHENOBARBITAL AND BETA-NAPHTHOFLAVONE, Method: PREINCUBATION",active; positive
same,mutagenic call,"Test System: AMES SALMONELLA TYPHIMURIUM, Strain/Indicator: TA98, Metabolic Activation: RAT, LIVER, S-9, AROCLOR 1254 (10%), Method: PREINCUBATION",active; positive
same,mutagenic call,[2],active; positive
same,mutagenic call,"Test System: AMES SALMONELLA TYPHIMURIUM, Strain/Indicator: TA98, Metabolic Activation: RAT, LIVER, S-9, PCB, Method: STANDARD PLATE",active; positive
same,mutagenic call,"Test System: AMES SALMONELLA TYPHIMURIUM, Strain/Indicator: TA100, Metabolic Activation: HAMSTER, LIVER, S-9, AROCLOR 1254 (10%), Method: PREINCUBATION",active; positive
same,mutagenic call,[3],inactive; negative
same,mutagenic call,"Test System: AMES SALMONELLA TYPHIMURIUM, Strain/Indicator: TA100, Metabolic Activation: RAT LIVER S-9, PHENOBARBITAL AND BETA-NAPHTHOFLAVONE, Method: PREINCUBATION",active; positive
same,mutagenic call,"Test System: AMES SALMONELLA TYPHIMURIUM, Strain/Indicator: TA100, Metabolic Activation: RAT, LIVER, S-9, AROCLOR 1254 (10%), Method: PREINCUBATION",active; positive
same,mutagenic call,[4],active; positive
same,mutagenic call,"Test System: AMES SALMONELLA TYPHIMURIUM, Strain/Indicator: TA100, Metabolic Activation: RAT, LIVER, S-9, PCB, Method: STANDARD PLATE",active; positive
same,mutagenic call,"Test System: AMES SALMONELLA TYPHIMURIUM, Strain/Indicator: TA1535, Metabolic Activation: HAMSTER, LIVER, S-9, AROCLOR 1254 (10%), Method: PREINCUBATION",active; positive
same,mutagenic call,"Test System: AMES SALMONELLA TYPHIMURIUM, Strain/Indicator: TA1535, Metabolic Activation: NONE, Method: PREINCUBATION",inactive; negative
same,mutagenic call,"Test System: AMES SALMONELLA TYPHIMURIUM, Strain/Indicator: TA1535, Metabolic Activation: RAT LIVER S-9, PHENOBARBITAL AND BETA-NAPHTHOFLAVONE, Method: PREINCUBATION",inactive; negative
same,mutagenic call,"Test System: AMES SALMONELLA TYPHIMURIUM, Strain/Indicator: TA1535, Metabolic Activation: RAT, LIVER, S-9, AROCLOR 1254 (10%), Method: PREINCUBATION",inactive; negative
same,mutagenic call,"Test System: AMES SALMONELLA TYPHIMURIUM, Strain/Indicator: TA1537, Metabolic Activation: HAMSTER, LIVER, S-9, AROCLOR 1254 (10%), Method: PREINCUBATION",active; positive
same,mutagenic call,"Test System: AMES SALMONELLA TYPHIMURIUM, Strain/Indicator: TA1537, Metabolic Activation: NONE, Method: FLUCTUATION (MICROTITER)",inactive; negative
same,mutagenic call,"Test System: AMES SALMONELLA TYPHIMURIUM, Strain/Indicator: TA1537, Metabolic Activation: NONE, Method: PREINCUBATION",inactive; negative
same,mutagenic call,"Test System: AMES SALMONELLA TYPHIMURIUM, Strain/Indicator: TA1537, Metabolic Activation: RAT LIVER S-9, PHENOBARBITAL AND BETA-NAPHTHOFLAVONE, Method: PREINCUBATION",inactive; negative
same,mutagenic call,"Test System: AMES SALMONELLA TYPHIMURIUM, Strain/Indicator: TA1537, Metabolic Activation: RAT, LIVER, S-9, AROCLOR 1254 (10%), Method: PREINCUBATION",inactive; negative
same,mutagenic call,"Test System: AMES SALMONELLA TYPHIMURIUM, Strain/Indicator: TA7001, Metabolic Activation: NONE, Method: FLUCTUATION (MICROTITER)",inactive; negative
same,mutagenic call,"Test System: AMES SALMONELLA TYPHIMURIUM, Strain/Indicator: TA7002, Metabolic Activation: NONE, Method: FLUCTUATION (MICROTITER)",inactive; negative
same,mutagenic call,"Test System: AMES SALMONELLA TYPHIMURIUM, Strain/Indicator: TA7003, Metabolic Activation: NONE, Method: FLUCTUATION (MICROTITER)",inactive; negative
same,mutagenic call,"Test System: AMES SALMONELLA TYPHIMURIUM, Strain/Indicator: TA7004, Metabolic Activation: NONE, Method: FLUCTUATION (MICROTITER)",inactive; negative
same,mutagenic call,"Test System: AMES SALMONELLA TYPHIMURIUM, Strain/Indicator: TA7005, Metabolic Activation: NONE, Method: FLUCTUATION (MICROTITER)",active; positive
same,mutagenic call,"Test System: AMES SALMONELLA TYPHIMURIUM, Strain/Indicator: TA7006, Metabolic Activation: NONE, Method: FLUCTUATION (MICROTITER)",inactive; negative
same,mutagenic call,"Test System: E.COLI, Strain/Indicator: WP2UVRA, Metabolic Activation: NONE, Method: PREINCUBATION",inactive; negative
same,mutagenic call,"Test System: E.COLI, Strain/Indicator: WP2UVRA, Metabolic Activation: RAT LIVER S-9, PHENOBARBITAL AND BETA-NAPHTHOFLAVONE, Method: PREINCUBATION",inactive; negative
CCCCN(C[C@@H](CO)OCc1ccccc1)N=O,mutagenic call,[5],active; positive
same,mutagenic call,[4],active; positive
CN(N=O)C(=O)NC1O[C@H](CO)[C@@H](O)[C@H](O)[C@H]1O (stereo not given in full),mutagenic call,"Test System: CHINESE HAMSTER V-79, Strain/Indicator: V-79/8-AZAGUANINE, Metabolic Activation: NONE, Method: STANDARD PLATE",active; positive
Cc1ccc(/C=C/c2ccc(N)cc2)cc1,mutagenic call,"Test System: AMES SALMONELLA TYPHIMURIUM, Strain/Indicator: TA98(1,8-DNP6), Metabolic Activation: NONE, Method: STANDARD PLATE",inactive; negative
same,mutagenic call,"Test System: AMES SALMONELLA TYPHIMURIUM, Strain/Indicator: TA98(1,8-DNP6), Metabolic Activation: S-9, Method: STANDARD PLATE",active; positive
same,mutagenic call,[1],inactive; negative
same,mutagenic call,"Test System: AMES SALMONELLA TYPHIMURIUM, Strain/Indicator: TA98, Metabolic Activation: RAT LIVER S9, AROCHLOR, Method: STANDARD PLATE",active; positive
same,mutagenic call,"Test System: AMES SALMONELLA TYPHIMURIUM, Strain/Indicator: TA98, Metabolic Activation: S-9, Method: STANDARD PLATE",active; positive
same,mutagenic call,[3],inactive; negative
same,mutagenic call,"Test System: AMES SALMONELLA TYPHIMURIUM, Strain/Indicator: TA100, Metabolic Activation: RAT, LIVER, S9, AROCLOR, Method: STANDARD PLATE",active; positive
same,mutagenic call,"Test System: AMES SALMONELLA TYPHIMURIUM, Strain/Indicator: TA100, Metabolic Activation: S-9, Method: STANDARD PLATE",active; positive
Clc1nncc2ncccc12,mutagenic call,[6],inactive; negative
same,mutagenic call,[2],inactive; negative
same,mutagenic call,[5],inactive; negative
same,mutagenic call,[4],inactive; negative
N#Cc1cc([N+](=O)[O-])ccc1N,mutagenic call,[6],active; positive
same,mutagenic call,"Test System: AMES SALMONELLA TYPHIMURIUM, Strain/Indicator: TA98, Metabolic Activation: RAT, LIVER, S-9, PHENOBARBITAL AND BETA-NAPHTHOFLAVONE, Method: PREINCUBATION",active; positive
same,mutagenic call,[5],active; positive
same,mutagenic call,"Test System: AMES SALMONELLA TYPHIMURIUM, Strain/Indicator: TA100, Metabolic Activation: RAT, LIVER, S-9, PHENOBARBITAL AND BETA-NAPHTHOFLAVONE, Method: PREINCUBATION",active; positive
